Key:
PTPN2 (i.e., TC-PTP) = target: T1, PTPN2 (i.e., TC-PTP) (Homo sapiens, UniProt P17706); experiment: Phosphatase activity assay (DiFMUP substrate), PTPN2; format: biochemical; details: compounds binned ≤1 uM or >1 uM
T1 sequence (P17706 1-415): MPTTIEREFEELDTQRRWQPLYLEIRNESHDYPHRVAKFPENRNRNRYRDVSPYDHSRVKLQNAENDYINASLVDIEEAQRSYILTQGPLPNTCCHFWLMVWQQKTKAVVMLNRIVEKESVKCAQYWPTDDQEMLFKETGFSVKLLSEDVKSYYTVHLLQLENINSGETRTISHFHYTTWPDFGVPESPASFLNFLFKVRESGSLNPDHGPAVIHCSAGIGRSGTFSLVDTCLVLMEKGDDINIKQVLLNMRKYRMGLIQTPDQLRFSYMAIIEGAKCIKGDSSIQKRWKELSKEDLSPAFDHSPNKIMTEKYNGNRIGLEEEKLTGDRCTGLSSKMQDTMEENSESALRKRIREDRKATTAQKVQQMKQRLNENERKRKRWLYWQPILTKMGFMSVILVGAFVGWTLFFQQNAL
Method in brief: (§1)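 Read-out is continuous fluorescence of DiFMU (360 nm excitation, 450 nm emission) over about 15-30 minutes, with DiFMUP substrate at the enzyme's independently determined Km (PTPN2 approx. 45 μM final). Buffer: 50 mM HEPES pH 7.5, 150 mM NaCl, 0.5 mM EDTA, 1 mM DTT, 0.001% Tween-20, room temperature; initial rates versus 10-point dilution fitted for IC50, at least duplicate.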

PTPN1 (i.e., PTP1B) = target: T2, PTPN1 (i.e., PTP1B) (Homo sapiens, UniProt P18031); experiment: Phosphatase activity assay (DiFMUP substrate), PTP1B; format: biochemical; details: compounds binned ≤1 uM or >1 uM
T2 sequence (P18031 1-435): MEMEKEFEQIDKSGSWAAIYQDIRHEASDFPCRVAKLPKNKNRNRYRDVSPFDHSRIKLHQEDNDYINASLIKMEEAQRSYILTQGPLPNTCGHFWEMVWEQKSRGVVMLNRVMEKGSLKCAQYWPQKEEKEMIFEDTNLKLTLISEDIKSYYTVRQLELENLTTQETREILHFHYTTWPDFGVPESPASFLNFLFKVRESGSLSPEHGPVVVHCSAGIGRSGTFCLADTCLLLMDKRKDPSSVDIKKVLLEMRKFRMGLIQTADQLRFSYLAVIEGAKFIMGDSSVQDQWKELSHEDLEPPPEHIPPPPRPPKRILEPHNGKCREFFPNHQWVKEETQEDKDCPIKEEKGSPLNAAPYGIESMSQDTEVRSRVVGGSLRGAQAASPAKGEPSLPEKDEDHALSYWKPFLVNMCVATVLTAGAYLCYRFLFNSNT
Method in brief: as §1

| IC50 (PTPN2 (i.e., TC-PTP)) [µM] | IC50 (PTPN1 (i.e., PTP1B)) [µM] | SMILES |
| --- | --- | --- |
| ≤ 1 | ≤ 1 | O=C1CN(c2c(O)ccc(-c3cc(C4CC4)n[nH]3)c2F)S(=O)(=O)N1 [Compound 421, 5-(3-(3-cyclopropyl-1H-pyrazol-5-yl)-2-fluoro-6-hydroxyphenyl)-1,2,5-thiadiazolidin-3-one 1,1-dioxide] |
| ≤ 1 | ≤ 1 | O=C1CN(c2c(O)ccc(-c3ccn(CC4CC4)c3)c2F)S(=O)(=O)N1 [Compound 240, 5-(3-(1-(cyclopropylmethyl)-1H-pyrrol-3-yl)-2-fluoro-6-hydroxyphenyl)-1,2,5-thiadiazolidin-3-one 1,1-dioxide] |
| ≤ 1 | ≤ 1 | O=C1CN(c2c(O)ccc(-c3cn(C4CCC(Br)CC4)cn3)c2F)S(=O)(=O)N1 (stereo not shown) [Compound 423, 5-(3-(1-(4-bromocyclohexyl)-1H-imidazol-4-yl)-2-fluoro-6-hydroxyphenyl)-1,2,5-thiadiazolidin-3-one 1,1-dioxide] |
| ≤ 1 | ≤ 1 | O=C1CN(c2c(O)ccc(-c3cnn(C4CCC(O)CC4)c3)c2F)S(=O)(=O)N1 (stereo not shown) [Compound 408, 5-(2-fluoro-6-hydroxy-3-(1-(4-hydroxycyclohexyl)-1H-pyrazol-4-yl)phenyl)-1,2,5-thiadiazolidin-3-one 1,1-dioxide] |
| ≤ 1 | ≤ 1 | O=C1CN(c2c(O)ccc(-c3cc(C4CC4)n(CC4CC4)n3)c2F)S(=O)(=O)N1 [Compound 409, 5-(3-(5-cyclopropyl-1-(cyclopropylmethyl)-1H-pyrazol-3-yl)-2-fluoro-6-hydroxyphenyl)-1,2,5-thiadiazolidin-3-one 1,1-dioxide] |
| ≤ 1 | ≤ 1 | O=C1CN(c2c(O)ccc(-c3cn(-c4cc(F)ccc4F)cn3)c2F)S(=O)(=O)N1 [Compound 303, 5-(3-(1-(2,5-difluorophenyl)-1H-imidazol-4-yl)-2-fluoro-6-hydroxyphenyl)-1,2,5-thiadiazolidin-3-one 1,1-dioxide] |
| ≤ 1 | ≤ 1 | O=C1CN(c2c(O)ccc(-c3cc(N4CC(F)(F)C4)n[nH]3)c2F)S(=O)(=O)N1 [Compound 451, 5-(3-(3-(3,3-difluoroazetidin-1-yl)-1H-pyrazol-5-yl)-2-fluoro-6-hydroxyphenyl)-1,2,5-thiadiazolidin-3-one 1,1-dioxide] |
| ≤ 1 | ≤ 1 | O=C1CN(c2c(O)ccc(-c3cc(N4CCCCC4)n[nH]3)c2F)S(=O)(=O)N1 [Compound 332, 5-(2-fluoro-6-hydroxy-3-(3-(piperidin-1-yl)-1H-pyrazol-5-yl)phenyl)-1,2,5-thiadiazolidin-3-one 1,1-dioxide] |
| ≤ 1 | ≤ 1 | CN(C)C1CCN(c2cc(-c3ccc(O)c(N4CC(=O)NS4(=O)=O)c3F)[nH]n2)C1 (stereo not shown) [Compound 397, 5-(3-(3-(3-(dimethylamino)pyrrolidin-1-yl)-1H-pyrazol-5-yl)-2-fluoro-6-hydroxyphenyl)-1,2,5-thiadiazolidin-3-one 1,1-dioxide] |
| ≤ 1 | ≤ 1 | COC1CCN(c2cc(-c3ccc(O)c(N4CC(=O)NS4(=O)=O)c3F)[nH]n2)C1 (stereo not shown) [Compound 388, 5-(2-fluoro-6-hydroxy-3-(3-(3-methoxypyrrolidin-1-yl)-1H-pyrazol-5-yl)phenyl)-1,2,5-thiadiazolidin-3-one 1,1-dioxide] |
| ≤ 1 | ≤ 1 | CN1CCC(n2cc(-c3ccc(O)c(N4CC(=O)NS4(=O)=O)c3F)cn2)CC1 [Compound 259, 5-(2-fluoro-6-hydroxy-3-(1-(1-methylpiperidin-4-yl)-1H-pyrazol-4-yl)phenyl)-1,2,5-thiadiazolidin-3-one 1,1-dioxide] |
| ≤ 1 | ≤ 1 | COC(=O)n1nc(-c2ccc(O)c(N3CC(=O)NS3(=O)=O)c2F)cc1C1CC1 [Compound 536, methyl 5-cyclopropyl-3-(3-(1,1-dioxido-4-oxo-1,2,5-thiadiazolidin-2-yl)-2-fluoro-4-hydroxyphenyl)-1H-pyrazole-1-carboxylate] |
| ≤ 1 | ≤ 1 | NC(=O)Cn1nc(-c2ccc(O)c(N3CC(=O)NS3(=O)=O)c2F)cc1C1CC1 [Compound 229, 2-(5-cyclopropyl-3-(3-(1,1-dioxido-4-oxo-1,2,5-thiadiazolidin-2-yl)-2-fluoro-4-hydroxyphenyl)-1H-pyrazol-1-yl)acetamide] |
| ≤ 1 | ≤ 1 | O=C1CN(c2c(O)ccc(-c3cn(C4CCC(F)CC4)cn3)c2F)S(=O)(=O)N1 (stereo not shown) [Compound 306, 5-(2-fluoro-3-(1-(4-fluorocyclohexyl)-1H-imidazol-4-yl)-6-hydroxyphenyl)-1,2,5-thiadiazolidin-3-one 1,1-dioxide] |

Continued, compound first:

| SMILES | IC50 (PTPN2 (i.e., TC-PTP)) [µM] | IC50 (PTPN1 (i.e., PTP1B)) [µM] |
| --- | --- | --- |
| O=C1CN(c2c(O)ccc(C3=CCNC3)c2F)S(=O)(=O)N1 [Compound 489, 5-(3-(2,5-dihydro-1H-pyrrol-3-yl)-2-fluoro-6-hydroxyphenyl)-1,2,5-thiadiazolidin-3-one 1,1-dioxide] | ≤ 1 | ≤ 1 |
| CC(C)CNc1cccc(-c2ccc(O)c(N3CC(=O)NS3(=O)=O)c2F)c1 [Compound 137, 5-(2-fluoro-4-hydroxy-3′-(isobutylamino)-[1,1′-biphenyl]-3-yl)-1,2,5-thiadiazolidin-3-one 1,1-dioxide] | ≤ 1 | ≤ 1 |
| CC(C)CCc1cc(-c2ccc(O)c(N3CC(=O)NS3(=O)=O)c2F)nn1C [Compound 380, 5-(2-fluoro-6-hydroxy-3-(5-isopentyl-1-methyl-1H-pyrazol-3-yl)phenyl)-1,2,5-thiadiazolidin-3-one 1,1-dioxide] | ≤ 1 | ≤ 1 |
| O=C1CN(c2c(O)ccc(C3=CC(CCC4CC4)NC3)c2F)S(=O)(=O)N1 (stereo not shown) [Compound 539, 5-(3-(5-(2-cyclopropylethyl)-2,5-dihydro-1H-pyrrol-3-yl)-2-fluoro-6-hydroxyphenyl)-1,2,5-thiadiazolidin-3-one 1,1-dioxide] | ≤ 1 | ≤ 1 |
| O=C1CN(c2c(O)ccc(C3=CCC(NS(=O)(=O)C4CC4)CC3)c2F)S(=O)(=O)N1 (stereo not shown) [Compound 317, N-(3′-(1,1-dioxido-4-oxo-1,2,5-thiadiazolidin-2-yl)-2′-fluoro-4′-hydroxy-2,3,4,5-tetrahydro-[1,1′-biphenyl]-4-yl)cyclopropanesulfonamide] | ≤ 1 | ≤ 1 |
| N#Cc1ccc(-c2ccc(O)c(N3CC(=O)NS3(=O)=O)c2F)cn1 [Compound 144, 5-(3-(1,1-dioxido-4-oxo-1,2,5-thiadiazolidin-2-yl)-2-fluoro-4-hydroxyphenyl)picolinonitrile] | ≤ 1 | ≤ 1 |
| COc1cc(-c2ccc(O)c(N3CC(=O)NS3(=O)=O)c2F)ccn1 [Compound 107, 5-(2-fluoro-6-hydroxy-3-(2-methoxypyridin-4-yl)phenyl)-1,2,5-thiadiazolidin-3-one 1,1-dioxide] | ≤ 1 | ≤ 1 |
| CC1CC(c2ccc(O)c(N3CC(=O)NS3(=O)=O)c2F)CN1 (stereo not shown) [Compound 407, 5-(2-fluoro-6-hydroxy-3-(5-methylpyrrolidin-3-yl)phenyl)-1,2,5-thiadiazolidin-3-one 1,1-dioxide] | ≤ 1 | ≤ 1 |
| O=C1CN(c2c(O)ccc(-c3nnc(C4CC4)[nH]3)c2F)S(=O)(=O)N1 [Compound 235, 5-(3-(5-cyclopropyl-4H-1,2,4-triazol-3-yl)-2-fluoro-6-hydroxyphenyl)-1,2,5-thiadiazolidin-3-one 1,1-dioxide] | ≤ 1 | ≤ 1 |
| O=C1CN(c2c(O)ccc(-c3cnn(C(=O)N4CC(F)(F)C4)c3)c2F)S(=O)(=O)N1 [Compound 505, 5-(3-(1-(3,3-difluoroazetidine-1-carbonyl)-1H-pyrazol-4-yl)-2-fluoro-6-hydroxyphenyl)-1,2,5-thiadiazolidin-3-one 1,1-dioxide] | ≤ 1 | ≤ 1 |
| O=C1CN(c2c(O)ccc(-c3ccc4ocnc4c3)c2F)S(=O)(=O)N1 [Compound 170, 5-(3-(benzo[d]oxazol-5-yl)-2-fluoro-6-hydroxyphenyl)-1,2,5-thiadiazolidin-3-one 1,1-dioxide] | ≤ 1 | ≤ 1 |
| O=C1CN(c2c(O)ccc(-c3cnn(-c4ccccc4)c3)c2F)S(=O)(=O)N1 [Compound 147, 5-(2-fluoro-6-hydroxy-3-(1-phenyl-1H-pyrazol-4-yl)phenyl)-1,2,5-thiadiazolidin-3-one 1,1-dioxide] | ≤ 1 | ≤ 1 |

— patent US20240398828A1, “HETERO-ATOM CONTAINING COMPOUNDS AND USES THEREOF” (Kumquat Biosciences Inc., priority 2021, published 2024)
